In the assay the target is recombinant human BACE-1 (Homo sapiens, UniProt P56817). Kind of assay: BACE-1 FRET peptide cleavage assay. In kind it is biochemical. The following applies: for IC50, inhibition of cleavage of FRET peptide by BACE-1: FRET peptide with Swedish variant, pH 4.5, 2 h, 25 °C, triplicate; for inhibitory activity against BACE-1 cleavage of FRET peptide, in words: qualitative statement.

Structures can show the parent of a compound that is named as a salt.

Sequence of recombinant human BACE-1 (P56817 46-501): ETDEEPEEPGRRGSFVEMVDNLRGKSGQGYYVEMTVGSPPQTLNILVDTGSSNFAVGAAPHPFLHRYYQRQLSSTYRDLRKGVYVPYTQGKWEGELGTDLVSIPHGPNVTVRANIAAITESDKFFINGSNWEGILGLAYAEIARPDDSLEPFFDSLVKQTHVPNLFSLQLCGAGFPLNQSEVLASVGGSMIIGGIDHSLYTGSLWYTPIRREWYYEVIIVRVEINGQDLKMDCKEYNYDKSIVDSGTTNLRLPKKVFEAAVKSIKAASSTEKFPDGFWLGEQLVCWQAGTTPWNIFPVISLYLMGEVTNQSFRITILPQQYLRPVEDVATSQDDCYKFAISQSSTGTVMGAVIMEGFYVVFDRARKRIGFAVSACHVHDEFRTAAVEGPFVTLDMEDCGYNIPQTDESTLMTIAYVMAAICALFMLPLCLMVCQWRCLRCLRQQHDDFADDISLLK

As to “5-Aminopentyl [(α-L-idopyranosyluronate)-(1→4)-O-(2-acetamido-2-deoxy-6-O-sulfonate-α-D-glucopyranoside)-(1→4)-O-(2-O-sulfonato-α-L-idopyranosyl-uronate)]-(1→4)-2-deoxy-2-acetamido-6-O-sulfonate-α-D-glucopyranoside penta sodium salt [Compound 84]”, the “IC50, inhibition of cleavage of FRET peptide by BACE-1” value (from here on “IC50, inhibition”) is on record as >300 µg/ml. Turning to “5-Aminopentyl [(β-D-glucopyranosyluronate)-(1→4)-O-(2-acetamido-2-deoxy-6-O-sulfonato- α-D-glucopyranoside)-(1→4)-O-(2-O-sulfonato-α-L-idopyranosyluronate)]-(1→4)-2-deoxy-2-acetamido-6-O-sulfonate-α-D-glucopyranoside penta sodium salt [Compound 85]”, the “IC50, inhibition” value was 167 µg/ml. “5-Aminopentyl [(β-D-glucopyranosyluronate)-(1→4)-O-(2-deoxy-2-sulfamino-6-O-sulfonate-α-D-glucopyranoside)-(1→4)-O-(2-O-sulfonate-α-L-idopyranosyluronate)-(1→4)-2-deoxy-2-sulfoamino-6-O-sulfonate-α-D-glucopyranoside heptasodium salt [Compound 86]”: the “IC50, inhibition” value was >300 µg/ml. For the compound `NCCCCCOC1OC(COS(=O)(=O)O)C(OC2OC(C(=O)O)C(OC3OC(COS(=O)(=O)O)C(OC4OC(C(=O)O)C(OC5OC(COS(=O)(=O)O)C(OC6OC(C(=O)O)C(O)C(O)C6O)C(O)C5NS(=O)(=O)O)C(O)C4O)C(O)C3NS(=O)(=O)O)C(O)C2O)C(O)C1NS(=O)(=O)O` [Compound 69, 5-aminopentyl [(β-D-glucopyranosyluronate)-(1→4)-(2-deoxy-2-sulfoamino-6-O-sulfonato-α-D-glucopyranoside)-(1→4)-O-(α-L-idopyranosyluronate)-(1→4)-O-(2-deoxy-2-sulfoamino-6-O-sulfanate-α-D-glucopyranoside)-(1→4)-(β-D-glucopyranosyluronate)]-(1→4)-O-2-deoxy-N-sulfoamino-6-O-sulfonate-α-D-glucopyranoside nonasodium salt], the “IC50, inhibition” value is 64 µg/ml. On to `CC(=O)N[C@H]1[C@@H](O[C@H]2[C@H](O)[C@@H](O)[C@H](O[C@H]3[C@H](O)[C@@H](NC(C)=O)[C@@H](OCCCCCN)O[C@@H]3COS(=O)(=O)[O-])O[C@@H]2C(=O)[O-])O[C@H](COS(=O)(=O)[O-])[C@@H](O[C@@H]2O[C@H](C(=O)[O-])[C@@H](O)[C@H](O)[C@H]2O)[C@@H]1O.[Na+].[Na+].[Na+].[Na+]` [Compound 76], for which the “IC50, inhibition” value was determined as 39 µg/ml and the “inhibitory activity against BACE-1 cleavage of FRET peptide, in words” value (from here on “inhibitory activity”) is listed as “modest activity”.

In the case of `NCCCCCO[C@H]1O[C@H](COS(=O)(=O)[O-])[C@@H](O[C@@H]2O[C@H](C(=O)[O-])[C@@H](O[C@H]3O[C@H](COS(=O)(=O)[O-])[C@@H](O[C@@H]4O[C@H](C(=O)[O-])[C@@H](O)[C@H](O)[C@H]4O)[C@H](O)[C@H]3NS(=O)(=O)[O-])[C@H](O)[C@H]2O)[C@H](O)[C@H]1NS(=O)(=O)[O-].[Na+].[Na+].[Na+].[Na+].[Na+].[Na+]` [Compound 77], the “IC50, inhibition” value is 97 µg/ml and the “inhibitory activity” value is listed as “modest activity”. Consider `CC(=O)N[C@H]1[C@@H](O[C@H]2[C@H](O)[C@@H](O)[C@H](O[C@H]3[C@H](O)[C@@H](NC(C)=O)[C@@H](OCCCCCN)O[C@@H]3COS(=O)(=O)[O-])O[C@H]2C(=O)[O-])O[C@H](COS(=O)(=O)[O-])[C@@H](O[C@@H]2O[C@H](C(=O)[O-])[C@@H](O)[C@H](O)[C@H]2O)[C@@H]1O.[Na+].[Na+].[Na+].[Na+]` [Compound 78], for which the “IC50, inhibition” value was >300 µg/ml. With `NCCCCCO[C@H]1O[C@H](COS(=O)(=O)[O-])[C@@H](O[C@@H]2O[C@@H](C(=O)[O-])[C@@H](O[C@H]3O[C@H](COS(=O)(=O)[O-])[C@@H](O[C@@H]4O[C@H](C(=O)[O-])[C@@H](O)[C@H](O)[C@H]4O)[C@H](O)[C@H]3NS(=O)(=O)[O-])[C@H](O)[C@H]2O)[C@H](O)[C@H]1NS(=O)(=O)[O-].[Na+].[Na+].[Na+].[Na+].[Na+].[Na+]` [Compound 79], the “IC50, inhibition” value amounted to 240 µg/ml. Take `CC(=O)N[C@H]1[C@@H](O[C@H]2[C@H](O)[C@@H](O)[C@H](O[C@H]3[C@H](O)[C@@H](NC(C)=O)[C@@H](OCCCCCN)O[C@@H]3COS(=O)(=O)[O-])O[C@@H]2C(=O)[O-])O[C@H](COS(=O)(=O)[O-])[C@@H](O[C@@H]2O[C@@H](C(=O)[O-])[C@@H](O)[C@H](O)[C@H]2O)[C@@H]1O.[Na+].[Na+].[Na+].[Na+]` [Compound 80]: the “IC50, inhibition” value came out at 104 µg/ml. Take `NCCCCCO[C@H]1O[C@H](COS(=O)(=O)[O-])[C@@H](O[C@@H]2O[C@H](C(=O)[O-])[C@@H](O[C@H]3O[C@H](COS(=O)(=O)[O-])[C@@H](O[C@@H]4O[C@@H](C(=O)[O-])[C@@H](O)[C@H](O)[C@H]4O)[C@H](O)[C@H]3NS(=O)(=O)[O-])[C@H](O)[C@H]2O)[C@H](O)[C@H]1NS(=O)(=O)[O-].[Na+].[Na+].[Na+].[Na+].[Na+].[Na+]` [Compound 81, 5-aminopentyl [(L-α-idopyranosyluronate)-(1→4)-O-(2-deoxy-2-sulfoamino-6-O-sulfonate-α-D-glucopyranoside)-(1→4)-O-(β-D-glucopyranosyluronate)]-(1→4)-2-deoxy-2-sulfoamino-6-O-sulfonate-α-D-glucopyranoside hexasodium salt]: the “IC50, inhibition” value is reported as 290 µg/ml.

In the case of `CC(=O)N[C@H]1[C@@H](O[C@H]2[C@H](O)[C@@H](O)[C@H](O[C@H]3[C@H](O)[C@@H](NC(C)=O)[C@@H](OCCCCCN)O[C@@H]3COS(=O)(=O)[O-])O[C@H]2C(=O)[O-])O[C@H](COS(=O)(=O)[O-])[C@@H](O[C@@H]2O[C@@H](C(=O)[O-])[C@@H](O)[C@H](O)[C@H]2O)[C@@H]1O.[Na+].[Na+].[Na+].[Na+]` [Compound 82], the “IC50, inhibition” value is recorded as 35 µg/ml and the “inhibitory activity” value was “modest activity”. Moreover, for the setting “acetamido moieties instead of N-sulfates”, the “reduction of potency relative to compound 83” value stood at 10 fold. Turning to `NCCCCCO[C@H]1O[C@H](COS(=O)(=O)[O-])[C@@H](O[C@@H]2O[C@@H](C(=O)[O-])[C@@H](O[C@H]3O[C@H](COS(=O)(=O)[O-])[C@@H](O[C@@H]4O[C@@H](C(=O)[O-])[C@@H](O)[C@H](O)[C@H]4O)[C@H](O)[C@H]3NS(=O)(=O)[O-])[C@H](O)[C@H]2O)[C@H](O)[C@H]1NS(=O)(=O)[O-].[Na+].[Na+].[Na+].[Na+].[Na+].[Na+]` [Compound 83], the “IC50, inhibition” value amounted to 4.6 µg/ml and the “inhibitory activity” value is given as “relatively high potency”.

Values taken from paper PMC2820250 (Journal of the American Chemical Society, 2009).
